For data set [1], the target named is T1, CLIC1 (Homo sapiens, UniProt O00299). The following applies: 1 mM GSH, 250 uM NADPH, 50 nM GR, pH 7, 37 °C; reduced monomer; HEDS range printed as 0-6 mM, so printed unit uM is doubtful.
Data set [2] deals with CLIC1 (Homo sapiens, UniProt O00299, C59A). The following applies: 1 mM GSH, 250 uM NADPH, 50 nM GR, pH 7, 37 °C; HEDS range printed as 0-6 mM, so printed unit uM is doubtful.
The target in data set [3] is T2, CLIC4 (Homo sapiens, UniProt Q9Y696). Nature of the data set: HEDS assay, GR-coupled NADPH oxidation at A340. Type of data set: biochemical. The following applies: 5 uM protein, 1 mM HEDS, 1 mM GSH, pH 7, 37 °C.
T2 sequence (Q9Y696 2-253): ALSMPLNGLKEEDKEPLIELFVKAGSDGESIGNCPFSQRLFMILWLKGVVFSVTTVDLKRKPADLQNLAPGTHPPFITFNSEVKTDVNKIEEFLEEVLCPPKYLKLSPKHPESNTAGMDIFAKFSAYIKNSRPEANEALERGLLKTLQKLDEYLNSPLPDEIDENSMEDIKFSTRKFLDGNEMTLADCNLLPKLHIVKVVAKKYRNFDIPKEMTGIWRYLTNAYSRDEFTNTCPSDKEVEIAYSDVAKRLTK
Data set [4] concerns the target T3, CLIC2 (Homo sapiens, UniProt O15247).
T3 construct: full length, N-terminal GST tag (pGEX-2T) cut with thrombin; E. coli BL21(DE3)
Put plainly: HEDS assay, GR-coupled NADPH oxidation at A340. Type of data set: biochemical. The following applies: 5 uM protein, 1 mM HEDS, 1 mM GSH, pH 7, 37 °C.

The target of data set [5] is T1, CLIC1. Put plainly: HEDS assay, GR-coupled. Type of data set: biochemical. More on the design: full length, His-tag (pET28a) cut with thrombin; E. coli BL21(DE3); reduced monomer by SEC. The following applies: 5 uM CLIC1, 1 mM HEDS, 1 mM GSH, pH 7, 37 °C; mode and site not determined.
Data set [6] deals with T2, CLIC4. Nature of the data set: DHAR assay, GR-coupled NADPH oxidation at A340. The following applies: 5 uM protein, 1 mM DHA, 2 mM GSH, pH 7.5, 30 °C. Type of data set: biochemical.
Data set [7] deals with O=[Se](O)O. Put plainly: purified protein. The following applies: 50 uM GSH, 200 uM NADPH, 50 nM GR, pH 7.5, 20 °C, reduced monomer, selenite 0-16 uM.

T3 sequence (O15247 whole entry): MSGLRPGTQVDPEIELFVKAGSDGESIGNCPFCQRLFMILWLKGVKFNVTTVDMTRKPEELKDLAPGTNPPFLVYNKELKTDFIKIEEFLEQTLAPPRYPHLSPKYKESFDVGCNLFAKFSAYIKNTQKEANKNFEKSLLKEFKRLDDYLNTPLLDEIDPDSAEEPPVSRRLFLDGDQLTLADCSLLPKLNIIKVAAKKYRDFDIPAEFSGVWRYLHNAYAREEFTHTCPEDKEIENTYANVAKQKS

In the case of `OCCSSCCO` [2-hydroxyethyl disulfide], the Michaelis-Menten constant (Km) (as a rule, the concentration of substrate that gives half-maximal velocity) in data set [1] worked out at 1.28 ± 0.65 µM; in data set [2] it was 1.25 ± 0.65 µM. Besides, the “HEDS assay, GR-coupled NADPH oxidation at A340” value in data set [3] and in data set [4] was “all three proteins reduced the HEDS substrate when coupled with glutathione (GSH)” in each case.
For `O=C(O)c1c2ccccc2cc2ccccc12` [A9C], in data set [5], the “complete inhibition at 10 uM” value is “both IAA-94 and A9C completely blocked the enzymatic activity of CLIC1”.
Consider `CC1(C2CCCC2)Cc2cc(OCC(=O)O)c(Cl)c(Cl)c2C1=O` (centres unmarked) [IAA-94], for which, in data set [5], the “complete inhibition at 10 uM” value was “both IAA-94 and A9C completely blocked the enzymatic activity of CLIC1”.
As for `O=C1O[C@H]([C@@H](O)CO)C(=O)C1=O` [dehydroascorbic acid], in data set [6], the “DHAR assay, GR-coupled NADPH oxidation at A340” value is “NADPH consumption increased in the presence of CLIC1 or CLIC4”.
In the case of CLIC1 (Homo sapiens), the Km in data set [7] worked out at 4.81 ± 3.00 µM.

The values are drawn from paper PMC4291220 (PLoS ONE, 2015).
